Where a name gives a salt, the structure may show the parent alone. A value given as a limit tells only on which side of the number the result lay.

In the first assay the test system is mono-methyl arginine in RKO cells. Put plainly: RKO Methylation Assay, In Cell Western (ICW) for mono-methyl arginine and DNA content. The assay is classed as cell-based. To be noted: Homo sapiens, RKO, 72 h, RKO cells, 72 hours, mono-methyl arginine, percent activation; single experiment or average of multiple experiments; read-out: EC30 (In Cell Western data, Numerical). The gist of the method: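 After fixation, mono-methyl arginine and DNA (DRAQ5) were measured by infrared In-Cell Western imaging at 700/800 nm in RKO cells exposed to compounds for 72 hours. Percent activation used DMSO wells as minimum and 20 μM reference compound as maximum; EC30 curves fitted on triplicate wells.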
By EC30 is commonly meant the concentration at which the effect reaches the 30% level. Consider `CNCCN(C)Cc1c[nH]nc1-c1cc(Cl)c(OC(C)C)c(Cl)c1` [Compound 265, N^1-((3-(3,5-dichloro-4-isopropoxyphenyl)-1H-pyrazol-4-yl)methyl)-N^1,N^2-dimethylethane-1,2-diamine], for which the 30% effect concentration (EC30) amounted to 0.503 µM.
Still for that read-out and setting: the figure for `CNCCN(C)Cc1cn(Cc2ccccn2)nc1-c1ccc(OC(C)C)cc1` [Compound 247] is 8.26 µM; for `CCN(CCN)Cc1c[nH]nc1-c1ccc(F)cc1` [Compound 62] it is more than 20 µM.
As for `CC(C)Cc1cccc(-c2n[nH]cc2CN(C)CCN)c1` [Compound 235], the concentration for an effect of 30% (EC30) was determined as 1.56 µM.
As to `CNCCN(C)Cc1c[nH]nc1-c1cc(C(C)C)cc(C(C)C)c1` [Compound 229, N^1-((3-(3,5-diisopropylphenyl)-1H-pyrazol-4-yl)methyl)-N^1,N^2-dimethylethane-1,2-diamine], the concentration for an effect of 30% (EC30) was found to be 8.71 µM.
With `CNCCN(C)Cc1c(-c2ccc(OCCCOC)cc2)cnn1C` [Compound 276], the EC30 is more than 20 µM.
Take `CN(CCN)Cc1c[nH]nc1-c1ccc(C#N)cc1` [Compound 68]: the 30% effect concentration (EC30) stood at 0.775 µM.
Still for that read-out and setting: the figure for `CNCCN(C)Cc1n[nH]cc1-c1ccc(Oc2cccc(C#N)c2)cc1` [Compound 267] is 0.694 µM; for `CNCCN(C)Cc1c[nH]nc1-c1ccc(OCCCO)cc1` [Compound 236] it is 0.852 µM; for `CCCc1ccc(-c2n[nH]cc2CN(C)CCNC)cc1` [Compound 20] it is 0.18 µM.
Still for that read-out and setting: the figure for `CNCCN(C)Cc1n[nH]cc1-c1ccc(Oc2ccccc2F)cc1` [Compound 279, N^1-((4-(4-(2-fluorophenoxy)phenyl)-1H-pyrazol-3-yl)methyl)-N^1,N^2-dimethylethane-1,2-diamine] is 0.637 µM; for `CNCCN(C)Cc1n[nH]cc1-c1cc(Cl)c(OC(C)C)c(Cl)c1` [Compound 273] it is 1.3 µM; for `CNCCN(C)Cc1n[nH]cc1-c1cc(C(C)C)cc(C(C)C)c1` [Compound 242] it is more than 20 µM.
On to `CNCCN(C)Cc1n[nH]cc1-c1cc(CC(C)C)cc(CC(C)C)c1` [Compound 271], for which the concentration for an effect of 30% (EC30) was more than 20 µM.
The same measure, in the same setting: the figure for `C=CC(=O)Nc1cccc(-c2[nH]ncc2CN(C)CCNC)c1` [Compound 258] is more than 20 µM.
With `CNCCN(C)Cc1c[nH]nc1-c1ccc(Oc2cccc(F)c2)cc1` [Compound 231], the EC30 was determined as 0.23 µM.
Same read-out and setting: the figure for `CNCCN(C)Cc1n[nH]c(C)c1-c1ccc(OC(C)C)cc1` [Compound 275] is 0.122 µM.
As to `CNCCN(C)Cc1c[nH]nc1-c1ccc(Oc2ccccc2)cc1` [Compound 37], the 30% effect concentration (EC30) turned out to be 0.05 µM.
Same read-out and setting: the figure for `CN(CCN)Cc1c[nH]nc1-c1ccc(Oc2ccccc2F)cc1` [Compound 259] is 0.532 µM; for `CNCCN(C)Cc1c[nH]nc1-c1ccc(Oc2ccccc2C(=O)NC)cc1` [Compound 274] it is 3.04 µM; for `C=C(C)C(=O)Nc1cccc(-c2[nH]ncc2CN(C)CCNC)c1` [Compound 257] it is more than 20 µM.
The same measure, in the same setting: the figure for `CNCCN(C)Cc1n[nH]cc1-c1ccc(Oc2ccccc2)c(C(=O)N(C)C)c1` [Compound 241] is 10.4 µM; for `CNCCN(C)Cc1c[nH]nc1-c1ccc(Oc2ccccc2F)cc1` [Compound 237] it is 0.114 µM; for `CNCCN(C)Cc1n[nH]cc1-c1ccc(Oc2cccc(OC)c2)cc1` [Compound 239] it is 1.28 µM.
On the same count and under the same terms, the figure for `CNCCN(C)Cc1cn(Cc2ccncc2)nc1-c1ccc(OC(C)C)cc1` [Compound 245] is 0.627 µM; for `CCCN(CCN)Cc1c[nH]nc1-c1ccc(F)cc1` [Compound 63] it is more than 20 µM.
`CNCCN(C)Cc1c[nH]nc1-c1ccc(Oc2cccc(C(C)C)c2)cc1` [Compound 262]: the EC30 stood at 1.23 µM.
The same measure, in the same setting: the figure for `CNCCN(C)Cc1c[nH]nc1-c1ccc(Oc2cccc(C#N)c2)cc1` [Compound 261] is 0.327 µM; for `CNCCN(C)Cc1n[nH]cc1-c1ccc(Oc2cccc(C(C)C)c2)cc1` [Compound 277] it is more than 20 µM.
Still for that read-out and setting: the figure for `CNCCN(C)Cc1nn(C)cc1-c1ccc(OCCCOC)cc1` [Compound 266] is more than 20 µM; for `CC(C)Cc1cc(-c2n[nH]cc2CN(C)CCN)ccc1F` [Compound 280] it is 1.72 µM.
Same read-out and setting: the figure for `CNCCN(C)Cc1cn(CC(N)=O)nc1-c1ccc(OC(C)C)cc1` [Compound 251] is 18.7 µM; for `CNCCN(C)Cc1n[nH]cc1-c1ccc(Oc2cccc(F)c2)cc1` [Compound 270] it is 1.06 µM.
As to `CNCCN(C)Cc1n[nH]cc1-c1ccc(Oc2cccc(C(=O)NC)c2)cc1` [Compound 268], the concentration for an effect of 30% (EC30) was 3.69 µM.
As to `CNCCN(C)Cc1cn(CC(=O)OC)nc1-c1ccc(OC(C)C)cc1` [Compound 248], the EC30 was more than 20 µM.
The same measure, in the same setting: the figure for `CNCCN(C)Cc1c[nH]nc1-c1ccc(Oc2ccccc2)c(C(=O)NC)c1` [Compound 232] is 7.14 µM; for `CNCCN(C)Cc1n[nH]cc1-c1cc(OC(C)C)cc(C(C)C)c1` [Compound 272] it is more than 20 µM.
On the same count and under the same terms, the figure for `CNCCN(C)Cc1c[nH]nc1-c1ccc(O)cc1` [Compound 27] is 12.3 µM; for `CNCCN(C)Cc1c[nH]nc1-c1cc(CC(C)C)cc(CC(C)C)c1` [Compound 281] it is 3.52 µM; for `CNCCN(C)Cc1c[nH]nc1-c1ccc(Oc2ccccc2)c(C(=O)N(C)C)c1` [Compound 233] it is 17.3 µM.
On the same count and under the same terms, the figure for `CNCCN(C)Cc1c[nH]nc1-c1ccc(Oc2cccc(OC)c2)cc1` [Compound 230] is 0.206 µM; for `CNCCN(C)Cc1c[nH]nc1-c1ccc(CO)cc1` [Compound 28] it is 10.2 µM.
Consider `CNCCN(C)Cc1cn(C)nc1-c1ccc(OC(C)C)cc1` [Compound 243, N^1-((3-(4-isopropoxyphenyl)-1-methyl-1H-pyrazol-4-yl)methyl)-N1,N2-dimethylethane-1,2-diamine], for which the concentration for an effect of 30% (EC30) came to 0.809 µM.
On to `CNCCN(C)Cc1c[nH]nc1-c1cc(Cl)c(OCC2CC2)c(Cl)c1` [Compound 282], for which the 30% effect concentration (EC30) was determined as 0.383 µM.
In the case of `CNCCN(C)Cc1n[nH]cc1-c1ccc(Oc2ccccc2)c(C(=O)NC)c1` [Compound 240], the concentration for an effect of 30% (EC30) is 6.45 µM.
Regarding `CNCCN(C)Cc1c[nH]nc1-c1cc(OC(C)C)cc(C(C)C)c1` [Compound 260], the EC30 came out at 6.07 µM.
Still for that read-out and setting: the figure for `CNCCN(C)Cc1cn(C2CCCCC2)nc1-c1ccc(OC(C)C)cc1` [Compound 256] is more than 20 µM.

The assay is the same for the next values; noted with them: Homo sapiens, RKO, 72 h, read-out: EC30 (In Cell Western data, Numerical, μM).
`CNCCN(C)Cc1cn(CCOC)nc1-c1ccc(OC(C)C)cc1` [Compound 253, N1-((3-(4-isopropoxyphenyl)-1-(2-methoxyethyl)-1H-pyrazol-4-yl)methyl)-N1,N2-dimethylethane-1,2-diamine hydrochloride]: the EC30 was found to be 8 µM.
With `CNCCN(C)Cc1cn(Cc2cccnc2)nc1-c1ccc(OC(C)C)cc1` [Compound 246], the EC30 was determined as 1.08 µM.
On the same count and under the same terms, the figure for `CNCCN(C)Cc1cn(C2CCC2)nc1-c1ccc(OC(C)C)cc1` [Compound 254, N1-((1-cyclobutyl-3-(4-isopropoxyphenyl)-1H-pyrazol-4-yl)methyl)-N1,N2-dimethylethane-1,2-diamine hydrochloride] is 2.24 µM; for `CNCCN(C)Cc1cnn(CC(=O)OC)c1-c1ccc(OC(C)C)cc1` [Compound 249] it is 9.53 µM.
Regarding `CNCCN(C)Cc1cnn(C2CCCC2)c1-c1ccc(OC(C)C)cc1` [Compound 255], the EC30 is 2.66 µM.
The same measure, in the same setting: the figure for `CNCCN(C)Cc1cn(CC(=O)O)nc1-c1ccc(OC(C)C)cc1` [Compound 250] is more than 20 µM; for `CNCCN(C)Cc1c[nH]nc1-c1ccc(F)cc1` [Compound 2, N^1-((3-(4-fluorophenyl)-1H-pyrazol-4-yl)methyl)-N^1,N^2-dimethylethane-1,2-diamine] it is 1.12 µM.
On the same count and under the same terms, the figure for `CCn1ncc(CN(C)CCNC)c1-c1ccc(OC(C)C)cc1` [Compound 252] is 1.82 µM.

Staying with this assay, now noted: RKO cells, 72 hours, mono-methyl arginine, percent activation; class symbols.
As to `CNCCN(C)Cc1c[nH]nc1-c1ccc(OC)cc1OC` [Compound 55], the “EC30 (In Cell Western data)” value is listed as “C (“C” indicates an EC30 ≧ 12.01 μM)”.
Still for that read-out and setting: the entry for `CNCCN(C)Cc1c[nH]nc1-c1ccccc1-c1ccccc1` [Compound 46] is “C (“C” indicates an EC30 ≧ 12.01 μM)”.
Consider `CNCCN(C)Cc1c[nH]nc1-c1c(OC)cccc1OC` [Compound 56], for which the “EC30 (In Cell Western data)” value is “C (“C” indicates an EC30 ≧ 12.01 μM)”.
Same read-out and setting: the entry for `CNCCN(C)Cc1c[nH]nc1-c1ccc(C(=O)c2ccccc2)cc1` [Compound 45] is “A (“A” indicates an EC30 ≦ 3.00 μM)”.
Still for that read-out and setting: the entry for `CNCCN(C)Cc1c[nH]nc1-c1ccccc1C(F)(F)F` [Compound 38] is “C (“C” indicates an EC30 ≧ 12.01 μM)”.

Staying with this assay, now noted: RKO cells, 72 hours, mono-methyl arginine, percent activation; single experiment or average of multiple experiments.
Consider `CNCCN(C)Cc1c[nH]nc1-c1ccc(C(=O)c2ccccc2)cc1` [Compound 45], for which the “EC30 (In Cell Western data, Numerical, μM)” value turned out to be 0.454 µM.
